# Experimental data reported in PMC12724136, “Design of antibody structure-guided epitope vaccines in silico to induce potent immune responses against emerging viruses” (Journal of Virology, 2025).
# T1: S3-WT epitope peptide (S3 385–400) (tilapia lake virus (TiLV))
# T1 construct: source: synthetic peptide (solid phase, SynthBio)
# T1 peptide: GYQLASEIRGTIPLSS
# T2: S10-WT epitope peptide (S10 55–66) (tilapia lake virus (TiLV))
# T2 construct: source: synthetic peptide (solid phase, SynthBio)
# T2 peptide: NIEWGDEVDLEM
# T3: S10-Mut epitope peptide (S10 55–66, alanine mutant) (tilapia lake virus (TiLV))
# T3 construct: source: synthetic peptide (solid phase, SynthBio)
# T3 peptide: NIEAGAAVALEM
# T4: S1-WT epitope peptide (S1 231–250) (tilapia lake virus (TiLV))
# T4 construct: source: synthetic peptide (solid phase, SynthBio)
# T4 peptide: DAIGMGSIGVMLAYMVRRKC
# T5: S1-Mut epitope peptide (S1 231–250, alanine mutant) (tilapia lake virus (TiLV))
# T5 construct: source: synthetic peptide (solid phase, SynthBio)
# T5 peptide: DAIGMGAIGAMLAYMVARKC
# T6: S390F epitope peptide (P30 with S390F), synthetic (tilapia lake virus (TiLV), S390F (stands in the printed letters))
# T6 construct: source: synthetic peptide (solid phase, SynthBio)
# T6 peptide: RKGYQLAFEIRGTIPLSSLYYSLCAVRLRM
# What was measured:
# TiLV-positive IgM = test: Indirect ELISA, affinity of synthetic peptides for TiLV-positive serum; assay type: binding, tilapia; details: peptides 0.1 to 100 μg/mL
# Experimental: The indirect ELISA was used to determine the affinity of synthetic peptides for the scFv1 protein and TiLV-positive serum. For the affinity detection of scFv1, the synthetic peptides were diluted at different concentrations (0.01–100 μg/mL) and coated in a microplate. After blocking, scFv1 protein (50 µg/mL) was added and incubated for 2 h at 37°C. In order to reduce the interference of non-specific binding, 50 µg/mL of BSA protein was used as a control for the analysis of binding to the antigenic peptides. Subsequently, 100 µL of 6×His-tag mouse mAb was added to each well and incubated for 1 h, followed by the addition of 100 µL of HRP-conjugated goat anti-mouse IgG for another hour. The color development and OD measurements were performed as described previously. For the affinity detection of serum, 100 µL of positive serum (1:200) was added to each well. The primary antibody was then replaced with mouse anti-tilapia IgM mAb (Frdbio), while all other steps remained unchanged.
# tilapia IgM = test: Serum antibody levels of tilapia after immunization with epitope peptides (ELISA); assay type: in vivo, Nile tilapia (Oreochromis niloticus); details: for immunogenicity (serum IgM antibody levels) after primary and booster immunization: 20 µg peptide i.m., booster after 14 days, 7-42 days; for immunogenicity (serum antibody titer) after single immunization: 20 µg peptide i.m. with Freund's adjuvant, 7-28 days
# Excerpt: Epitope vaccines usually need to be modified with Freund’s adjuvant (Beyotime) before immunization. Briefly, for a single immunization, the epitope peptide is mixed with an equal dose of complete Freund’s adjuvant and then administered to tilapia. For booster immunization, an equal dose of incomplete Freund’s adjuvant is fused with the epitope peptide before vaccination. For the S1, S3, and S10 epitope vaccine immunization programs, healthy Oreochromis niloticus were divided into six groups (70 fish per group) and vaccinated with 20 µg of peptide vaccine by intramuscular injection. During the 1–4 week immunization period, we collected four fish serum samples weekly for immunological analysis.
# In the immunization experiments based on the P30-designed vaccine, healthy Nile tilapia were divided into four groups (70 fish per group) and injected intramuscularly with 20 µg of peptide vaccine to complete the primary immunization. After 14 days, the same dose of vaccine was administered again to complete the booster immunization. Serum and tissue samples were collected from 4 fishes in each group weekly after the primary immunization, for a total of 6 weeks. Furthermore, a PBS control was incorporated into both immunization experiments, and the immunization process was conducted in accordance with the aforementioned methodology.
# Serum antibody levels after immunization were determined by indirect ELISA. Specifically, serum samples were diluted appropriately, coated to enzyme-labeled plates, and incubated overnight at 4°C. After being washed three times with PBST buffer, each well was incubated with mouse anti-tilapia IgM mAb (1:5,000) at 37°C for 1 h. After washing, each well was incubated with HRP-conjugated goat anti-mouse IgG (1:5,500) for an additional hour. Color development was carried out as described above.
# scFv1 [1] = test: Western blot, binding of S3 epitope peptide and mutants to GST-scFv1; design: species or system Nile tilapia (Oreochromis niloticus); details: PVDF membrane with GST-scFv1 incubated with S3 proteins 37°C 2 h; 6×His tag antibody
# Experimental: The PET-N-GST-scFv1 plasmid was constructed using seamless cloning technology (Vazyme), and the protein was obtained through a prokaryotic expression system. The scFv1 protein was purified using GST resin (Beyotime) and stored after lyophilization. Similarly, S3-WT, S3-MuT-^Y386^A, S3-MuT-^R393^A, S3-MuT-^L398^A, and S3-MuT were expressed in prokaryotes using the pET32a plasmid. In the Western blot experiment, after blocking, the PVDF membrane containing GST-scFv1 blots was incubated with each of the five S3 proteins at 37°C for 2 h. Subsequently, the anti-6×His tag mouse mAb was used as the primary antibody, and HRP-conjugated goat anti-mouse IgG was used as the secondary antibody. The ECL color development steps were performed as described above.
# scFv1 [2] = test: Co-immunoprecipitation of epitope peptides with scFv1 in HEK293T cells; assay type: cell-based, Nile tilapia (Oreochromis niloticus); details: for Co-IP with scFv1, His-tag system: His-tagged peptide and Flag-scFv1 co-transfected in HEK293T; for Co-IP with scFv1, GFP tag system: pEGFP-peptide and pCMV-Flag-scFv1 co-transfected in HEK293T, 48 h
# Experimental: Protein samples were extracted following the co-transfection of HEK293T cells with plasmids containing P30, S390F, G394K, and scFv1 for 48 h, respectively. Subsequent Co-IP assays were performed using the kit (Beyotime) in accordance with the provided protocol. In brief, TBS-washed protein A + G magnetic beads were incubated with GFP-tagged IgG2a mAb (1:3,000, Proteintech) for 1 h at room temperature. Subsequently, the samples were incubated at 4°C overnight. Following the washing of the beads with cell lysates containing protease inhibitors, protein elution was completed with SDS-PAGE loading buffer (Solarbio) for protein blotting. In the Western blot analysis, the GFP-tagged IgG2a mAb (1:3,000) and the Flag-tagged mouse mAb (1:2,000, Beyotime) were employed to identify the IP and input protein samples, respectively. Furthermore, all samples were characterized with a reference protein antibody (β-actin) as a standard control. Enzyme-labeled secondary antibodies consisted of HRP-conjugated goat anti-mouse IgG (1:4,000). The bands were visualized using the ECL Plus hypersensitive luminescent solution (Solarbio) and photographed with a chemiluminescence program. In addition, the His tag system was also used to verify the interaction between epitope peptides, such as P30 and scFv1. Plasmids encoding P30, S390F, and G394K fused with His tags and the plasmid encoding scFv1 fused with a Flag tag were co-transfected into HEK293T cells, respectively. The His-tag monoclonal antibody (1:500, Proteintech) was bound to A + G magnetic beads and used to detect the interaction, and all other operation steps were performed as described above.
# scFv1 [3] = test: Yeast two-hybrid assay of epitope peptides with scFv1; assay type: cell-based, Nile tilapia (Oreochromis niloticus); details: pGBKT-scFv1 bait, pGADT-peptide; Y2Hgold; 96 h
# Experimental: The pGBKT-scFv1 bait plasmid was transformed into Y2Hgold yeast competent cells (WEIDI) and cultured in SD-deficient medium (Beijing Zoman Biotechnology Co., Ltd.) to confirm the absence of self-activation. Subsequently, pGADT-P30, pGADT-S390F, and pGADT-G394K plasmids, along with the pGBKT-scFv1 bait plasmid, were co-transformed into Y2Hgold yeast competent cells. The cells were then cultured on LT-deficient SD and LTHA-deficient SD medium for 48–96 h to observe the expression of the reporter genes. Additionally, the pGADT-T plasmid was co-transformed with the pGBKT-53 and pGBKT-lam plasmids and cultured as positive and negative controls, respectively.
# scFv1 [4] = test: Cellular co-localization of epitope peptides with scFv1 in HEK293T cells; assay type: cell-based, Nile tilapia (Oreochromis niloticus); details: pEGFP-peptide and pCMV-DsRed-scFv1 in HEK293T, 48 h, confocal
# Experimental: The pEGFP-P30, S390F, and G394K plasmids, along with the pCMV-C-DsRed-scFv1 plasmid, were co-transfected into HEK293T cells and cultured for 48 h. Afterward, the cells were fixed with 4% paraformaldehyde, permeabilized, and stained with DPAI (Beyotime), which contains an anti-fluorescence quencher. The expression and co-localization of proteins in cells were observed using confocal fluorescence microscopy.
# [5] = target: T1, S3-WT epitope peptide (S3 385–400); test: ELISA; details: both partners purified
# [6] = target: T2, S10-WT epitope peptide (S10 55–66); test: ELISA; details: both partners purified
# [7] = target: T3, S10-Mut epitope peptide (S10 55–66, …); test: ELISA; details: both partners purified
# [8] = target: T4, S1-WT epitope peptide (S1 231–250); test: ELISA; details: both partners purified
# [9] = target: T5, S1-Mut epitope peptide (S1 231–250, …); test: ELISA; details: both partners purified
# [10] = target: T6, S390F epitope peptide (P30 with S390F), …; test: SPR; details: both partners purified
molecule,measurement,setting,value
RKGYQLASEIRGTIPLSSLYYYLCAVRLRM [S404Y],affinity to TiLV-specific positive serum,TiLV-positive IgM,did not show improved affinity compared to P30
same,immunogenicity (serum IgM antibody levels) after primary and booster immunization,tilapia IgM,failed to show significantly improved immunogenicity
GAQLASEIAGTIPASS [S3MuT],binding to GST-scFv1 by Western blot,scFv1 [1],did not show the protein
same,immunogenicity (serum antibody titer) after single immunization,tilapia IgM,lower antibody stimulation level
NIEWGDEVDLEM [S10WT],immunogenicity (serum antibody titer) after single immunization,tilapia IgM,robust immune responses
DAIGMGAIGAMLAYMVARKC [S1MuT],immunogenicity (serum antibody titer) after single immunization,tilapia IgM,lower antibody stimulation level
RKGYQLASEIRKTIPLSSLYYSLCAVRLRM [G394K],"Co-IP with scFv1, His-tag system",scFv1 [2],did not
same,"Co-IP with scFv1, GFP tag system",scFv1 [2],negative in the Co-IP reaction
same,yeast two-hybrid growth on LTHA-deficient SD medium,scFv1 [3],did not exhibit any growth
same,co-localization with scFv1 in cells,scFv1 [4],failed to bind to the antibody
RKGYQLASEIRGFIPLSSLYYSLCAVRLRM [T395F],affinity to TiLV-specific positive serum,TiLV-positive IgM,did not show improved affinity compared to P30
same,immunogenicity (serum IgM antibody levels) after primary and booster immunization,tilapia IgM,failed to show significantly improved immunogenicity
DAIGMGSIGVMLAYMVRRKC [S1WT],immunogenicity (serum antibody titer) after single immunization,tilapia IgM,robust immune responses
NIEAGAAVALEM [S10MuT],immunogenicity (serum antibody titer) after single immunization,tilapia IgM,lower antibody stimulation level
RKGYQLASEIRGTIPLSSLYYSLCAVRLRM [P30],"Co-IP with scFv1, His-tag system",scFv1 [2],showed interactions with scFv1
same,"Co-IP with scFv1, GFP tag system",scFv1 [2],able to bind to the antibody
same,yeast two-hybrid growth on LTHA-deficient SD medium,scFv1 [3],exhibited plaque growth
same,co-localization with scFv1 in cells,scFv1 [4],co-localized with the antibody
"scFv1, prokaryote-expressed (pET32a-scFv1) (scFv, also called antibody scFv1; source: E. coli BL21, prokaryotic expression (pET32a-scFv1); freeze-dried, dissolved in PBS) scFv: MSHRLTCAYSGFSSDIHAVWVRQAAGKGLEWIAYISDSSAYIYYSQSVRGRFTISRDNSRKQVYLQMNSLTTEDSAVYYCTREGSGFAFDYWGKGTGGGGSGGGGSGGGGSVTISATGSSNIGADLSWYLQKTGETPKLLIYKASTRSSGTPPRFSGSTSGSQYTLTISGVQAEDAGDYYCLGDHGGGALTFGGGTK",binding result,[5],binds
same,binding result,[6],binds
same,binding result,[7],binds
same,binding result,[8],binds
same,binding result,[9],binds
same,Kd,[10],0.573 µM
"scFv1, expressed in CHO cells (pcDNA3.1-scFv1) (scFv, also called eukaryote-expressed scFv1; source: CHO cells, eukaryotic expression (pcDNA3.1-scFv1)) scFv: MSHRLTCAYSGFSSDIHAVWVRQAAGKGLEWIAYISDSSAYIYYSQSVRGRFTISRDNSRKQVYLQMNSLTTEDSAVYYCTREGSGFAFDYWGKGTGGGGSGGGGSGGGGSVTISATGSSNIGADLSWYLQKTGETPKLLIYKASTRSSGTPPRFSGSTSGSQYTLTISGVQAEDAGDYYCLGDHGGGALTFGGGTK",binding result,[5],binds
same,binding result,[6],binds
same,binding result,[7],binds
same,binding result,[8],binds
same,binding result,[9],binds
